Source: PubChem BioAssay AID540258 (Broad Institute, 2011)
The source made the active and inactive calls.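 How the source made its calls: active means fitted curve reaching 40% activation at or below the top valid dose tested; inconclusive means flat curve at 30 to 70% activation, or poor fit; inactive means the rest.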

Test system: SK-MEL-5 TRPM1 promoter luciferase reporter, 24 h
Assay: activation of TRPM1 promoter luciferase in melanoma cells – SK-MEL-5 cells, cherry-pick samples, dose response (AID 540258);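 on AC40: potency for activators that raise TRPM1 promoter luciferase signal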
Conditions: not given

Which AC40 does the source give for O=c1oc(-c2cccs2)nc2sc3c(c12)CCCCC3 here?
Its AC40 is 6.42 µM.

For O=C(NC1CCCCCC1)c1cc2c(=O)n3ccccc3nc2s1, which AC40 is on record?
Its AC40 is 8.63 µM.

With COc1ccc(/C=N/Nc2ccccn2)cc1O as the compound, how does the AC40 read?
The AC40 was 3.01 µM.

With N#Cc1c(-c2ccc(Cl)cc2)ccn2nc(C3CCCCC3)nc12 as the compound, how does the AC40 read?
Its AC40 is 2.4 µM.

With FC(F)(F)c1ccnc(Oc2ccc(C3=NCCS3)cc2)c1 as the compound, how does the AC40 read?
The AC40 was 0.654 µM.

With Cc1cccc(-c2nc(C#N)c(NC3CCCCC3)o2)c1 as the compound, how does the AC40 read?
Its AC40 is 1.29 µM.

Which AC40 does the source give for CC(=O)N/C(N)=N/c1nc(=O)c2ccccc2s1 here?
Its AC40 is 5.92 µM.

For Nc1ccc(Oc2cc(N)cc(Oc3ccccc3)c2)cc1, which AC40 is on record?
The AC40 was 4.99 µM.

For O=C(CCNc1ccccc1)c1ccc2c(c1)OCO2, which AC40 is on record?
Its AC40 is 1.12 µM.

With CCCCC(=O)Nc1sc2c(c1C#N)CC(C)(C)OC2 as the compound, how does the AC40 read?
Its AC40 is 5.29 µM.

With CCC(C)NC(=O)c1cn(-c2cccc(C)n2)cn1 (stereo not drawn) as the compound, how does the AC40 read?
Its AC40 is 10.6 µM.

Which AC40 does the source give for O=C(Nc1ccc2c(c1)CCC2)C1CCCN(c2ncccn2)C1 (stereo not drawn) here?
Its AC40 is 3.54 µM.

Which AC40 does the source give for O=C(Nc1ccccc1)N1CCC(c2ccccc2)C1 (stereo not drawn) here?
The AC40 was 1.8 µM.

With COc1ccc(Oc2nnc(C)c3ccccc23)cc1 as the compound, how does the AC40 read?
Its AC40 is 2.6 µM.

With COc1ccc(C(=O)NCCn2ccc3ccccc32)cc1 as the compound, how does the AC40 read?
The AC40 was 1.66 µM.

With COc1cccc(Nc2nc(-c3ccc(O)cc3)cs2)c1 as the compound, how does the AC40 read?
Its AC40 is 3.18 µM.

With C=CCn1cccc(C(=O)Nc2ccc(Cl)cc2)c1=O as the compound, how does the AC40 read?
Its AC40 is > 11 µM (inactive).

With Cc1nc2ccccc2nc(=O)c1NNc1ccccc1 as the compound, how does the AC40 read?
Its AC40 is 3.99 µM.

For Cc1cccc(Nc2nc3c(s2)CCCC3)c1, which AC40 is on record?
Its AC40 is 0.993 µM.

Which AC40 does the source give for CCCc1ccc(OCc2nc(-c3ccc(NC(=O)c4cccs4)cc3)no2)cc1 here?
Its AC40 is 14.2 µM.

With CCc1ccc(C(=O)N/N=C(\C)c2cccnc2)s1 as the compound, how does the AC40 read?
Its AC40 is 8.9 µM.

With Cc1ccc(CONC(=O)c2ccc(C)cc2)cc1 as the compound, how does the AC40 read?
The AC40 was 6.05 µM.

For Clc1ccc(C#Cc2cccnc2)cc1, which AC40 is on record?
The AC40 was 5.78 µM.

With C/C(=N\Nc1ccc(C(=O)O)cc1)c1ccc2c(c1)Nc1ccccc1S2 as the compound, how does the AC40 read?
Its AC40 is 12.8 µM.

Which AC40 does the source give for N#C/C(C(=O)N1CCCCC1)=C1\Nc2ccccc2S1 here?
The AC40 was 5.02 µM.

For Cc1ccc(/C=N/N2C(=O)c3ccccc3NC2c2ccc(C)cc2)cc1 (stereo not drawn), which AC40 is on record?
Its AC40 is 20.5 µM.

With Clc1ccc(-n2nnc(-c3ncc[nH]3)n2)cc1Cl as the compound, how does the AC40 read?
The AC40 was 7.37 µM.

Test system: not listed separately
Assay: as above
Conditions: SK-MEL-5 TRPM1 promoter luciferase reporter, 24 h; at 11 µM (top of the series); 100% = twice the neutral-control signal

Which activation does the source give for Cc1ccn2cc(C(=O)Nc3nnc(C)s3)nc2c1 here?
Its activation is 28.3% (inactive).

Same assay, conditions: SK-MEL-5 TRPM1 promoter luciferase reporter, 24 h; at 35 µM (top of the series); 100% = twice the neutral-control signal

With CCN(CC)S(=O)(=O)c1cccc(C(=O)N/N=C(\C)c2cccs2)c1 as the compound, how does the activation read?
Its activation is 23.7% (inactive).

With COC(=O)Nc1nnc(-c2ccccc2Cl)s1 as the compound, how does the activation read?
Its activation is 36% (inactive).

Which activation does the source give for O=C(CNc1ccccc1OC(F)F)N1CCc2ccccc21 here?
Its activation is 31.9% (inactive).

For O=c1[nH]c(Cc2cccs2)nc2scc(-c3ccc(Cl)cc3)c12, which activation is on record?
Its activation is 14.1% (inactive).

For CC(c1ccccc1)c1nnc(NC(=O)Nc2ccccc2F)s1 (stereo not drawn), which activation is on record?
Its activation is 38.2% (inactive).

With Cc1ccc(Nc2nc(CSc3n[nH]c(N)n3)cs2)cc1 as the compound, how does the activation read?
The activation was -11.9% (inactive).

For COc1cccc(/C=N/Nc2c(Cl)cncc2Cl)c1O, which activation is on record?
Its activation is 25.5% (inactive).

Which activation does the source give for COc1cccc(CN(C)C(=O)c2ccc(COc3ccc(Cl)cc3)cc2)c1OC here?
Its activation is 32.6% (inactive).

With Cc1ccn2cc(-c3cccc(NS(C)(=O)=O)c3)nc2c1 as the compound, how does the activation read?
The activation was 32.6% (inactive).

For Cc1nc2ccccn2c1C(=O)N/N=C/c1ccc2c(c1)OCO2, which activation is on record?
Its activation is 34.3% (inactive).

Which activation does the source give for Cc1cc(C)n2nc(SCN3C(=O)c4ccccc4C3=O)nc2n1 here?
The activation was -5.27% (inactive).

Which activation does the source give for COc1ccc(-c2cc(=O)c3cc(C)ccc3[nH]2)cc1 here?
The activation was -4.97% (inactive).

With CCN(CC)C(=O)Oc1ccc2c(=O)c(-c3ccc(OC)cc3)coc2c1 as the compound, how does the activation read?
The activation was -22.5% (inactive).

For c1ccc(-c2ccc(-c3cnc4n3CCCCC4)cc2)cc1, which activation is on record?
The activation was 30.4% (inactive).

Which activation does the source give for CCCc1ccc(-c2cc(C(=O)NCCc3ccc(S(N)(=O)=O)cc3)c3ccccc3n2)cc1 here?
The activation was 26.4% (inactive).

For Cc1ccccc1C(=O)O/N=C(\N)Cc1cccs1, which activation is on record?
The activation was 23.1% (inactive).

With Cc1cc(C)n(-c2nnc(NC(C)(C)C)nn2)n1 as the compound, how does the activation read?
Its activation is 31.6% (inactive).

Which activation does the source give for COc1ccc(NC2=Nc3ccccc3CC2)cc1 here?
Its activation is 2.84% (inactive).

With Cc1cccc(C(=O)Nc2sc3c(c2C#N)CCCCC3)c1 as the compound, how does the activation read?
Its activation is 3.85% (inactive).

Which activation does the source give for O=C(CNC(=O)c1cccs1)c1ccc(Br)cc1 here?
Its activation is 1.98% (inactive).

For CCN(CC)c1ccc(C(=O)NNC(=O)c2cccn2C)cc1, which activation is on record?
The activation was 25.3% (inactive).

For Cc1ccc(N=Nc2ccc(O)cc2)c(Br)c1, which activation is on record?
Its activation is -1.83% (inactive).

With O=C(N/N=C/c1ccc(OC(=O)c2ccccc2Cl)cc1)c1ccccn1 as the compound, how does the activation read?
The activation was 6.04% (inactive).

With CCc1nnc(NS(=O)(=O)c2ccc(NC(=O)c3cccc(Cl)c3)cc2)s1 as the compound, how does the activation read?
The activation was -14.9% (inactive).

With CC(C)(C)N1C(=O)c2ccc(C(=O)Nc3nccs3)cc2C1=O as the compound, how does the activation read?
The activation was 39% (inactive).

Which activation does the source give for O=c1[nH]c(COc2ccccc2)nc2ccccc12 here?
The activation was 24.6% (inactive).

With CCn1cnc2c(Nc3cccc(Cl)c3)nc(C#N)nc21 as the compound, how does the activation read?
The activation was 14.6% (inactive).

For CC(=O)c1ccc(NC(=O)c2noc3c2CCCCC3)cc1, which activation is on record?
The activation was -0.504% (inactive).

With COc1ccc(/C=C/c2ccc3c(Br)ccc(O)c3n2)cc1 as the compound, how does the activation read?
The activation was 25.4% (inactive).

Which activation does the source give for CC(C)NC(=O)c1ccc2c3n(nc2c1)-c1ccc(Cl)cc1CO3 here?
Its activation is -2.69% (inactive).

With CCN(CC)S(=O)(=O)c1cc(C(=O)Nc2cc(C)[nH]n2)ccc1Cl as the compound, how does the activation read?
The activation was 32.8% (inactive).

With CC(C)C(=O)Nc1cccc(C(=O)Nc2nnc(C(C)C)s2)c1 as the compound, how does the activation read?
The activation was 16.6% (inactive).

For Cc1ccc2oc(Nc3nc(C)c(C)c(C)n3)nc2c1, which activation is on record?
Its activation is 34.2% (inactive).

For Fc1ccccc1Nc1nc2ccccc2o1, which activation is on record?
Its activation is -20% (inactive).

Which activation does the source give for O=C(Nc1cccc2[nH]ncc12)c1ccc(F)cc1 here?
The activation was 28.3% (inactive).

Which activation does the source give for Cc1ccc(/C=N/c2sc3c(c2C#N)CCC3)s1 here?
Its activation is 3.01% (inactive).

Which activation does the source give for Cc1ccc(SCc2cn3c(C)csc3n2)cc1 here?
Its activation is -37.7% (inactive).

For COc1ccc(C(=O)Nc2cc(OC)nc(OC)n2)cc1, which activation is on record?
The activation was 6.12% (inactive).

Which activation does the source give for COC(=O)C(C)N1C(=O)S/C(=C/c2cc(C)n(C(C)C)c2C)C1=O (stereo not drawn) here?
The activation was -32% (inactive).

For CN1CCc2c(sc(NC(=O)c3ccc4ccccc4c3)c2C(N)=O)C1, which activation is on record?
The activation was -68.3% (inactive).

With COc1ccccc1C(=O)Nc1ccc2c(C)cc(=O)oc2c1 as the compound, how does the activation read?
The activation was 29.6% (inactive).

For CSCC[C@H](NC(=O)[C@@H]1Cc2ccccc2CN1)C(=O)NC[C@H]1CC[C@H](C(=O)O)CC1, which activation is on record?
The activation was -11.7% (inactive).

With Cc1ccc(NC(=O)CN2CCCC2c2cccn2C)c(Br)c1 (stereo not drawn) as the compound, how does the activation read?
Its activation is 29% (inactive).

With O=C(Nc1ccccc1)C(=O)Nc1ccc2c(c1)N(C(=O)C1CC1)CCC2 as the compound, how does the activation read?
The activation was -36.8% (inactive).

Which activation does the source give for CC(C)(C)c1csc(NC2=NS(=O)(=O)c3ccccc32)n1 here?
Its activation is 7.7% (inactive).

Which activation does the source give for Cc1c(C(=O)Nc2ccccc2F)cnn1-c1ccccc1 here?
Its activation is 27.5% (inactive).

Which activation does the source give for CC1CCC(NC(=O)c2cc3c(s2)CCCC3)CC1 (stereo not drawn) here?
Its activation is 33.2% (inactive).

For O=C(Nc1cnc2ccccc2c1)N1CCCCC1, which activation is on record?
The activation was 8.92% (inactive).

Which activation does the source give for Nc1ncccc1OCc1ccc(Br)cc1 here?
The activation was -6.84% (inactive).

Which activation does the source give for Cc1nnc2sc(-c3ccc(N(C)C)cc3)nn2c1=O here?
Its activation is -5.15% (inactive).

Which activation does the source give for COC(=O)Cn1c(=NC(=O)c2ccc(Cl)s2)sc2cc(C)ccc21 here?
The activation was 23.7% (inactive).

With CC(C)(C)C(=O)Nc1nc2cc3c(cc2s1)OCO3 as the compound, how does the activation read?
The activation was -25.8% (inactive).

With COc1cccc(CNc2nc3ccccc3n2C)c1O as the compound, how does the activation read?
Its activation is -9.75% (inactive).

For CC(=O)Nc1cccc(-c2csc(Nc3ccc(C)cn3)n2)c1, which activation is on record?
Its activation is -25.2% (inactive).

For C/C(=N\OC(=O)c1cccc(C(F)(F)F)c1)c1sc(-c2ccccc2)nc1C, which activation is on record?
Its activation is 14.6% (inactive).
